Measured values from patent publication US6447817B1, “Anti-inflammatory analgesic” (Nippon Hypox Laboratories Inc., priority 1998, dated 2002).
Entries after “also recorded” stand apart in the source; their conditions may differ.

Tested on: serotonin swelling of rat
Experiment: Inhibition of serotonin swelling of rat sole after application to the skin
Type: in vivo
Settings: for Average swelling ratio (%) / Average inhibition ratio (%): rat right sole, measured 30 min after injection; for Average swelling ratio (%): 1.5 g of 2% xanthan gum solution with 3% test sample applied 2 h before serotonin injection, control 30; for Average inhibition ratio (%): 3% test sample applied 2 h before serotonin injection
Method: For clarifying the effect of the anti-inflammation analgesic preparation of the present invention, the effect of the anti-inflammation analgesic preparation on inhibition of serotonin swelling is shown below.
1.5 Grams of a 2% xanthan gum solution containing a test sample of having a concentration of 3% was applied to a portion ranging from a right femoral portion to a sole portion (bottom portion) of a rat. Two hours after the test sample was applied, a solution of 3 μg/ml of serotonin in 0.1 ml of a saline solution was hypodermically injected into the sole of the right foot. Thirty minutes after the injection of the inflammatory substance, the swelling of the sole of the right leg was measured to determine a swelling ratio. When serotonin as an inflammatory substance involving the generation of a pain is injected, a swelling involving a pain is caused.

**Q.** What does the source list for `O=C(O)COc1nn(Cc2ccccc2)c2ccccc12` [Bendazac, reference compound]?
**A.** Average swelling ratio (%): 30%; Average inhibition ratio (%): 0%; Inhibition of serotonin swelling (in words) (rat, 3% test sample applied to skin): failed to inhibit the above inflammation reaction; also recorded: showed no effect on the swelling and was ineffective

**Q.** For `CCCCCCCCCCCCOC1=C(O)C(=O)O[C@@H]1[C@@H](O)CO` [L-3-0-dodecylascorbic acid], which “Average swelling ratio (%)” value is on record?
**A.** 14%

**Q.** And the “Average inhibition ratio (%)” value?
**A.** 54%

**Q.** `CCCCCCCCCCCCC(=O)COC1=C(O)C(=O)O[C@@H]1[C@@H](O)CO` [L-3-0-dodecylcarbonylmethylascorbic acid, L-3-0-dodecylcarbonyl-methylascorbic acid] was tested. Which “Average swelling ratio (%)” value did it give?
**A.** 13%

**Q.** What about the “Average inhibition ratio (%)” value of the same compound?
**A.** 57%

**Q.** How did the “Average swelling ratio (%)” value turn out when `CCOC1=C(O)C(=O)O[C@@H]1[C@@H](O)CO` [L-3-0-ethylascorbic acid] was run?
**A.** 12%

**Q.** And the “Average inhibition ratio (%)” value?
**A.** 76%

**Q.** What does the source list for `CCCCCCCCCCCCCCCCCCOC(=O)COC1=C(O)C(=O)O[C@@H]1[C@@H](O)CO` [L-3-0-octadecyloxycarbonylmethylascorbic acid]?
**A.** Average swelling ratio (%): 15%; Average inhibition ratio (%): 50%

**Q.** `O=C1O[C@H]([C@@H](O)CO)C([O-])=C1OP(=O)(O)O.O=C1O[C@H]([C@@H](O)CO)C([O-])=C1OP(=O)(O)O.[Mg+2]` [L-ascorbic acid-2-phosphoric acid ester magnesium salt] was tested. Which “Average swelling ratio (%)” value did it give?
**A.** 28%

**Q.** And the “Average inhibition ratio (%)” value?
**A.** 7%
